Data on 1 molecule can be found in patent US9732091B2, “Tryptophanol-derived oxazoloisoindolinones: small-molecule P53 activators” (UNIVERSIDADE DO PORTO, priority 2013, dated 2017).

Entries after “also recorded” stand apart in the source; their conditions may differ.

One series concerns the target T1, human wt p53 (Homo sapiens, UniProt P04637).
T1 construct: expressed in transfected cells
Description: yeast-based assay, yeast cells expressing human wt p53 (growth by CFU counts, cell cycle, actin Western blot). How it is done:
FIG. 1 illustrates that SLMP53-1 and SLMP53-2 increase the p53 effects in yeast. Yeast cells expressing human wt p53 and transformed with the empty vector (control yeast) were incubated in selective induction medium in the presence of 0.1-25 μM compound or DMSO only, for 42 hours. (A) Effect of 10 μM SLMP53-1 and SLMP53-2 on the p53-induced yeast growth inhibition. Results are plotted setting as one unit the p53-induced growth inhibition in the presence of DMSO only. Growth was estimated by colony-forming unit (CFU) counts. […] (B) Dose-response curve for SLMP53-1 in yeast cells expressing human p53 and control yeast. Cells were incubated in selective medium with 0.1-25 μM of SLMP53-1 or DMSO only. Results are plotted setting as 100% growth inhibition the number of CFU obtained in the presence of DMSO only. Data are mean±S.E.M. of three independent experiments (*P<0.05; unpaired Student's t-test). (C) Effect of SLMP53-1 and SLMP53-2 on p53-induced S-phase cell cycle arrest in yeast. Cell cycle phases were analyzed by flow cytometry using Sytox Green and quantified using ModFit LT software; quantification of cell cycle phases represent the mean values. (D) Increase of p53-induced actin protein expression levels by SLMP53-1 and SLMP53-2 in yeast expressing p53. Western Blot band intensity was quantified using Pgk1p as loading control (with Bio-Profile Bio-1D++ software).
Using a yeast-based screening approach, the chiral compounds SLMP53-1 and SLMP53-2 were identified as potential activators of wt p53, from a chemical library of tryptophanol-derived oxazoloisoindolinones with general formula (I) shown in FIG. 1, wherein X, R^1, R^2, R^3, R^4, R^5, R^6, R^7, R^8, R^9 and R^10 are as defined herein, as well as their stereoisomers, enantiomers, ra.cemates, tautomers thereof or mixtures thereof; or a pharmaceutically acceptable salt, solvate or prodrug thereof. In the yeast cell model, compounds SLMP53-1 and SLMP53-2 increased the previously reported (Coutinho et al. FEBS Lett. 2009, 583, 3582-3588) p53-induced growth inhibition (FIGS. 1A and B) and S-phase cell cycle arrest (FIG. 1C).

Another series deals with MDA-MB-231 (p53R280K). Description: SRB growth inhibition assay in MDA-MB-231 breast cancer cells. As to conditions: Homo sapiens, 48 hours incubation, mean±S.E.M. The format is cell-based, human. How it is done: Tumor cells were plated at 7.5×10^3 cells/well in 96-well plates and incubated for 24 hours. Cells were then exposed to serial dilutions of SLMP53-1, CP-31398 or PRIMA-1 (from 1.85 to 150 μM). The effect of the compounds was analyzed following 48 hours incubation period, using the sulforhodamine B (SRB) assay. The solvent DMSO corresponding to the maximum concentration used in these assays (0.025%) was included as control. The GI50 value, which is the concentration of compound that causes 50% growth inhibition, was calculated for the tested compounds. Results are the mean±S.E.M. of three independent experiments.

Series [1] has as its system HCT116 p53^+/+ cells. Description: cell cycle analysis by flow cytometry (propidium iodide), HCT116 p53^+/+. The class given is cell-based, human. Particulars: double GI50, 24 hours. How it is done: FIG. 3 illustrates the effect of SLMP53-1 on cell cycle progression of HCT116 p53^+/+ cells. Cell cycle phases were analyzed by flow cytometry using propidium iodide and quantified using ModFit LT software (Verity Software House Inc., Topsham, USA). Effect of compounds (double GI50) was analyzed after 24 hours treatment. Histograms represent one of two independent experiments; quantification of cell cycle phases represents the mean±S.E.M. of two independent experiments.
(In general: In flow cytometry, cells or beads pass a laser one at a time.)

Series [2] concerns HCT116 p53^+/+ cells. Description: apoptosis by flow cytometry (FITC-Annexin V and propidium iodide), HCT116 p53^+/+. As to conditions: GI50 and double GI50, 24 hours. The class given is cell-based, human. As to the method: Apoptosis was analyzed by flow cytometry using FITC-Annexin V and propidium iodide. The effect of compounds was analyzed after 24 hours treatment using the concentration of GI50 and double GI50. Histograms represent one of two independent experiments; quantification of cells in apoptosis represents the mean±S.E.M. of two independent experiments.

The target in the next series is T2, mutant p53 R280K (Homo sapiens, UniProt P04637, R280K).
T2 construct: expressed in transfected cells
Put plainly: reactivation of mutant p53 in yeast (growth, CFU), R280K. The class given is cell-based. Particulars: 10 μM; yeast expressing R280K; 44 hours. How it is done:
(§1) FIG. 6 illustrates that SLMP53-1 reactivates mutant p53s R273H, R175H and R280K in yeast. Yeast cells expressing R273H, R280K, Y220C or R175H were incubated in selective medium with 10 μM of SLMP53-1, 10 μM of CP-31398 (for R273H), 10 μM of PRIMA-1 (for R175H and R280K), 50 μM of PhiKan 083 (for Y220C) or DMSO only, for 44 hours. CP-31398, PRIMA-1 and PhiKan 083 were used as positive controls. Results are plotted setting as 100% growth the number of CFU obtained in the presence of DMSO only.
(§2) It is also shown that SLMP53-1 can reactivate some mutant p53 forms, particularly R273H, R280K and R175H (FIG. 6).

Another series addresses T3, mutant p53 R175H (Homo sapiens, UniProt P04637, R175H).
T3 construct: expressed in transfected cells
Put plainly: reactivation of mutant p53 in yeast (growth, CFU), R175H. The format is cell-based. As to conditions: 10 μM; yeast expressing R175H; 44 hours. As to the method:
as §1, §2

In a further series the test system is human lymphocytes. Description: cytokinesis-block micronucleus assay. The class given is cell-based. How it is done: Concerning the genotoxicity assays, three concentrations (15.5, 7.25 and 1.55 μM) of SLMP53-1 were tested, in vitro, for potential genotoxicity to human lymphocytes. For that purpose, the cytokinesis-block micronucleus assay (an assay routinely used in mutagen/carcinogen screening programs) was used, which measures the ability of genotoxic agents to induce both chromosomal damage (clastogenic) and/or spindle dysfunction (aneugenic) effects.

Series [3] can be described thus: apparent permeability coefficients. The class given is in vitro ADME.

The GI50 is the concentration that inhibits growth by half. Read a low GI50 as more potent growth inhibition. With `C[C@]12OC[C@H](Cc3c[nH]c4ccccc34)N1C(=O)c1ccccc12` [SLMP53-1], the p53-induced growth inhibition result at human wt p53 (yeast expressing human wt p53, 10 μM, 42 hours, vs DMSO only) was “increased”. For the same molecule, the “p53-induced S-phase cell cycle arrest” value at human wt p53 (yeast expressing human wt p53, flow cytometry) is “increased”. Moreover, the actin protein levels entry on human wt p53 (yeast expressing p53, Western blot, vs DMSO only) was “increased the actin protein levels”. This molecule also gave a GI50 with MDA-MB-231 (p53R280K) of 16.6 ± 4.2 µM. Also, the cell cycle progression entry in the series on HCT116 p53^+/+ cells [1] is “G0/G1-phase cell arrest”. Besides, the apoptosis result with HCT116 p53^+/+ cells [2] was “induces early and late apoptosis; also recorded: apoptotic cell death”. Further, the yeast growth inhibition entry at mutant p53 R280K and at mutant p53 R175H was “significant growth inhibition” each time. The “cytotoxic and genotoxic effects” value with human lymphocytes was “no cytotoxic and genotoxic effects were observed”. In addition, the “mutagenic potential (micronuclei frequency vs negative control)” value in the series with human lymphocytes (15.5, 7.25 and 1.55 μM, human lymphocytes, in vitro) is “does not possess mutagenic potential”. In addition, the apparent permeability coefficients result in series [3] was “favorable”.
